pIC50: −log10 of the molar value. Several values for one entry are separate records, joined by “and”; a condition that tells them apart may be missing. Equal entries are not always repeated. Where two headings read alike, the source gives them in different places.

Results on seven compounds are retold here after patent US8017400B2 (priority 2005, dated 2011).

The target in assay [1] is T1, G95A mutant ALS (Oryza sativa subsp. japonica, UniProt Q6K2E8, G95A).
T1 construct: made in house; host or cells: Escherichia coli (pGEX-2T)
T1 sequence (Q6K2E8 44-644 G95A): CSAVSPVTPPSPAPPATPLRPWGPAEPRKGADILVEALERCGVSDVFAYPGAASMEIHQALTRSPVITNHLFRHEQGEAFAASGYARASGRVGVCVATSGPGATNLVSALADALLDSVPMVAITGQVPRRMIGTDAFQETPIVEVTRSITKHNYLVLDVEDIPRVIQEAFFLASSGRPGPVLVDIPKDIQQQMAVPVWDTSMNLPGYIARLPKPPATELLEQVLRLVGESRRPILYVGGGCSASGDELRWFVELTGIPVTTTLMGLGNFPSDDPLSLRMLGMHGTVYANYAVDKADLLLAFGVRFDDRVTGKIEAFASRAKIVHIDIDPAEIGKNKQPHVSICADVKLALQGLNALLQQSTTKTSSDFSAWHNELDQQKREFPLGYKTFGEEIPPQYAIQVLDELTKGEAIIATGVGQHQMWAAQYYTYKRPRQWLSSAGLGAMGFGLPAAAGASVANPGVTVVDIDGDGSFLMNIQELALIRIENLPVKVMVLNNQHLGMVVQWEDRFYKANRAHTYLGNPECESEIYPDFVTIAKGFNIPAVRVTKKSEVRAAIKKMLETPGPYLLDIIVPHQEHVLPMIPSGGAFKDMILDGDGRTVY
In words: Inhibition of expressed GST fusion G95A mutant ALS activity by herbicides. It counts as biochemical, rice. As to conditions: for IC50: 50% inhibitory concentration (μM) G95A mutant, G95A mutant ALS (Table 5); for inhibition % at 100 μM / pIC50 / inhibition activity against G95A mutant ALS (in words): G95A mutant ALS; for pIC50: 50% inhibitory concentration. On the procedure: (§1) The Escherichia coli transformed with pGEX-2T having a G95A mutant ALS gene prepared in Example 6 and the same transformed with pGEX-2T (see WO02/44385A1) having a wild-type ALS gene were each shake-cultured (preculture) in 2 ml of LB liquid medium containing ampicillin at 27° C. They were each cultured in 250 ml of LB liquid medium containing ampicillin using 1 ml of the preculture solution. After overnight culture, 1 mM IPTG was added and they were further cultured for 3 to 4 hours. Thus, the expression of the GST fusion protein was induced. In addition, microbial bodies were washed with an ALS extraction buffer (potassium phosphate buffer (pH 7.5) containing 30% glycerol and 0.5 mM MgCl2) and then stored at −80° C.
(§2) Preparation and purification of ALS from Escherichia coli were performed by the following method. First, a pellet of the Escherichia coli stored at −80° C. was suspended in an ALS extraction buffer. (2.5 ml of the ALS extraction buffer was added to the pellet obtained from 50 ml of the culture solution.) The suspension was subjected to ultrasonication (Heat Systems-Ultrasonics, Sonicator W-225R, micro chip, output control 8, intervals of approximately 1 second, and twice every 40 seconds), and then centrifuged at 15000×g and 4° C. for 20 minutes, thereby obtaining the supernatant as a crude enzyme solution. Therefore, a crude enzyme solution of the GST fusion G95A mutant ALS protein and a crude enzyme solution of the GST fusion wild-type ALS protein were prepared.
(§3) A reaction solution to be used for the reaction for activity determination was prepared by mixing GST fusion ALS to be subjected to activity determination with a solution comprising 20 mM sodium pyruvate, 0.5 mM thiamine pyrophosphate, 0.5 mM MgCl2, 10 μM flavin adenine dinucleotide, 10 mM valine (added for the inhibition of activity of ALS derived from Escherichia coli), and 20 mM potassium phosphate buffer (pH 7.5). 0.5 ml of the reaction solution was used. The reaction was performed at 37° C. for 30 minutes after addition of GST fusion ALS to be subjected to activity determination. The reaction was stopped by the addition of 0.05 ml of 6 N sulfuric acid. After the completion of the reaction, the reaction solution was subjected to incubation at 37° C. for 60 minutes, so that acetolactic acid contained in the reaction solution was converted into acetoin. Subsequently, to quantify acetoin contained in the reaction solution, 0.05 ml of 0.5% (w/v) creatine and 0.05 ml of 5% (w/v) α-naphthol dissolved in 2.5 N sodium hydroxide were added, followed by 10 minutes of incubation at 37° C. Acetoin was then quantified by color comparison of the absorbance at 525 nm of the reaction solution, thereby evaluating ALS activity. The value at reaction time 0 (hours) was used as a control value. When the herbicide inhibition activity was examined, aqueous solutions of bispyribac-sodium and pyrithiobac-sodium were each prepared at a 100-fold concentration and then added to the reaction solution. In the case of pyriminobac, chlorsulfuron, bensulfuron-methyl, imazaquin, and imazapyr having low water solubility, an acetone solution was prepared for each thereof at a 100-fold concentrations and then added to the reaction solution.
(§4) The inhibition activity of various ALS inhibitors against the thus expressed G95A mutant ALS was examined.

The subject of assay [2] is G95A mutant ALS. The assay is described as above. It counts as biochemical, rice. As to conditions: 50% inhibitory concentration against G95A mutant ALS to that against wild-type ALS. On the procedure: as §1, §2, §3, §4
In assay [3] the target is T2, wild-type ALS (GST fusion wild-type ALS) (Oryza sativa subsp. japonica, UniProt Q6K2E8).
T2 construct: made in house; host or cells: Escherichia coli (pGEX-2T)
T2 sequence (Q6K2E8 44-644): as the sequence (Q6K2E8 44-644 G95A) above, with A52G counted along it
In words: Inhibition of expressed GST fusion wild-type ALS activity by herbicides. It counts as biochemical, rice. On the procedure: as §1, §2, §3
The 50% inhibitory concentration of each herbicide against G95A mutant ALS was compared with the 50% inhibitory concentration of the herbicide against wild-type ALS (GST fusion wild-type ALS), so that the herbicide resistance ratio (RS ratio) of the 50% inhibitory concentration against G95A mutant ALS to that against wild-type ALS was calculated. The RS ratios in the cases of bispyribac-sodium, pyrithiobac-sodium, and pyriminobac were 16,000:1 or more, 9, 100:1 or more, and 13,000:1 or more, respectively. In contrast, the RS ratios in the cases of chlorsulfuron, bensulfuron-methyl, imazaquin, and imazapyr were 0.19:1, 40:1, 0.82:1, and 4.9:1, respectively. […]

The subject of assay [4] is plants of wild-type Taichung 65. The experiment in a line: Bispyribac-sodium resistance test on rooting medium, wild-type control. As to conditions: wild-type Taichung 65, 2 weeks after seeding; observed 1 and 2 weeks after transplantation. It counts as in vivo, rice. On the procedure: (§5) The two lines of plants selected by the above method were designated the G95A-1 line and the G95A-2 line. Since they were albino plants, they were cultured on MS medium and then multiplied by division. To test the degree of resistance to bispyribac-sodium, clone plants divided from the G95A-1 line were transplanted on rooting media (Table 3) containing 0 μM, 1 μM, 5 μM, 10 μM, or 20 μM bispyribac-sodium (FIG. 3A: on the left in each Petri dish, observed as white because they were albino). Clone plants of the G95A-2 line (the number of these clone plants is a few) were tested using 5 μM bispyribac-sodium alone. Plants of wild-type Taichung 65 in 2 weeks after seeding were used as members of a control group (FIG. 3, on the right side in each Petri dish). Plant in 1 week (FIG. 3B) after transplantation and plant in 2 weeks (FIG. 3C) after transplantation were observed.

Assay [5] relates to clone plants of the G95A-1 line and the G95A-2 line. The experiment in a line: Bispyribac-sodium resistance test on rooting medium, G95A lines. It counts as in vivo, rice. Particulars: G95A-1 line at 1, 5, 10, 20 μM, G95A-2 line at 5 μM; observed 1 and 2 weeks after transplantation. On the procedure:
as §5

Where [6] appears, read: read-out: inhibition % at 100 μM, Average, G95A mutant ALS, average of determinations.
Where [7] appears, read: read-out: inhibition % at 100 μM, G95A mutant ALS, single determinations (First to Third).
Where [8] appears, read: read-out: inhibition activity at 100 μM, G95A mutant ALS.
Where [9] appears, read: Average, average of determinations (Table 4).
The mark [10] stands for this setting: single determinations (First to Sixth).

The IC50 is the midpoint of a concentration-inhibition curve. A high value points to a need for much substance. The term inhibition denotes the change of the read-out against control, counted positive when it falls. Usually pIC50 stands for the IC50 on a negative log10 scale, so that one unit is a factor of ten. Lower therefore signals a high IC50. For the compound `COc1cc(OC)nc(Sc2cccc(Cl)c2C(=O)[O-])n1.[Na+]` [Pyrithiobac-sodium, pyrithiobac-sodium], the IC50 on G95A mutant ALS [1] was greater than 100 µM. The “inhibition % at 100 μM” value against G95A mutant ALS [1] (single determinations (First to Third), listed as PS) was 12.8% and 18.1%. The inhibition at 100 µM at G95A mutant ALS [1] (setting [6]) was 14.3%; at G95A mutant ALS [1] (setting [7]) it was 12.1%; on G95A mutant ALS [1] (setting [8]) it was no more than 50%. For the same compound, the “Resistance ratio (RS ratio)” value in the assay with G95A mutant ALS [2] is on record as greater than 9100. Also, in assay [3], the negative logarithm of the IC50 (pIC50) was 7.96.
The compound `COC(=O)c1ccccc1CS(=O)(=O)NC(=O)Nc1nc(OC)cc(OC)n1` [Bensulfuron-methyl, bensulfuron-methyl] gave an IC50 against G95A mutant ALS [1] of 0.28 µM. Moreover, the negative-log IC50 (pIC50) against G95A mutant ALS [1] (setting [9]) was 6.56; on G95A mutant ALS [1] (setting [10]) it was 6.57 and 6.53; in assay [3], 8.15. Further, the “inhibition activity against G95A mutant ALS (in words)” value (“inhibition activity” for short) against G95A mutant ALS [1] is reported as “exerted inhibition activity”. Besides, the “Resistance ratio (RS ratio)” value with G95A mutant ALS [2] is 40.
Compound `COc1nc(C)nc(NC(=O)NS(=O)(=O)c2ccccc2Cl)n1` [Chlorsulfuron, chlorsulfuron] displayed an IC50 against G95A mutant ALS [1] of 0.0025 µM. Moreover, the pIC50 on G95A mutant ALS [1] (setting [9]) was 8.60; on G95A mutant ALS [1] (setting [10]), 8.72 and 8.64 and 8.52 and 8.57 and 8.55 and 8.68; in assay [3], 7.89. The “inhibition activity” value against G95A mutant ALS [1] is listed as “strong”. Besides, the “Resistance ratio (RS ratio)” value in the assay on G95A mutant ALS [2] is reported as 0.19.
For `CC(C)C1(C)N=C(c2nc3ccccc3cc2C(=O)O)NC1=O` (stereo not shown) [Imazaquin, imazaquin], the half-inhibitory concentration (IC50) against G95A mutant ALS [1] was determined as 1.8 µM. In addition, the negative-log IC50 (pIC50) on G95A mutant ALS [1] (setting [9]) is 5.74; at G95A mutant ALS [1] (setting [10]), 5.78 and 5.72 and 5.73; in assay [3], 5.66. In addition, on G95A mutant ALS [1], the “inhibition activity” value is given as “exerted inhibition activity”. In the assay with G95A mutant ALS [2], the “Resistance ratio (RS ratio)” value was 0.82.
`CC(C)C1(C)N=C(c2ncccc2C(=O)O)NC1=O` (stereo not shown) [Imazapyr, imazapyr] displayed an IC50 at G95A mutant ALS [1] of 47 µM. The pIC50 at G95A mutant ALS [1] (setting [9]) was 4.33; on G95A mutant ALS [1] (setting [10]), 4.34 and 4.35 and 4.30; in assay [3], 5.02. In addition, the “inhibition activity” value on G95A mutant ALS [1] is given as “exerted inhibition activity”. Also, the “Resistance ratio (RS ratio)” value in the assay with G95A mutant ALS [2] amounted to 4.9.
At G95A mutant ALS [1], `CON=C(C)c1cccc(Oc2nc(OC)cc(OC)n2)c1C(=O)O` (mixture of isomers) [Pyriminobac, pyriminobac] returned an IC50 greater than 100 µM. Besides, the “inhibition % at 100 μM” value at G95A mutant ALS [1] (single determinations (First to Third), listed as PM) was 23.3% and 29.2%. For the same compound, the inhibition at 100 µM was 25.1% at G95A mutant ALS [1] (setting [6]), 22.9% on G95A mutant ALS [1] (setting [7]) and no more than 50% on G95A mutant ALS [1] (setting [8]). For the same compound, the “Resistance ratio (RS ratio)” value in the assay with G95A mutant ALS [2] was greater than 13000; in the assay with G95A mutant ALS [2] (listed as pyriminobac) it was ≥ 13,000. This compound showed a negative-log IC50 (pIC50) in assay [3] of 8.10.
`COc1cc(OC)nc(Oc2cccc(Oc3nc(OC)cc(OC)n3)c2C(=O)[O-])n1.[Na+]` [Bispyribac-sodium, bispyribac-sodium] showed an IC50 against G95A mutant ALS [1] greater than 100 µM. The “inhibition % at 100 μM” value on G95A mutant ALS [1] (single determinations (First to Third), listed as BS) was 16.8% and 18.4%. Besides, the inhibition at 100 µM at G95A mutant ALS [1] (setting [6]) was 17.7%; at G95A mutant ALS [1] (setting [7]) it was 17.9%; at G95A mutant ALS [1] (setting [8]), no more than 50%. For the same compound, the “Resistance ratio (RS ratio)” value in the assay on G95A mutant ALS [2] was greater than 16000; with G95A mutant ALS [2] (listed as bispyribac-sodium) it was ≥ 16,000. The “effect on plants on bispyribac-sodium-containing rooting medium” value in assay [4] was “all the wild-type plants of the control group withered”. Further, in assay [5], the “resistance / rooting on bispyribac-sodium-containing rooting medium” value is “exerted resistance, with new rooting observed”. In assay [3], the negative-log IC50 (pIC50) is 8.20.
